# Results published in article PMC11224403, “Des-acyl ghrelin reduces alcohol intake and alcohol-induced reward in rodents” (Translational Psychiatry, 2024).
# What was measured:
# cFOS in NAc and VTA = test: cFOS-positive cells in NAc and VTA; type: in vivo, male rats; settings: acute DAG, 90 min
# Description: We therefore explore if DAG influenced the activity of neurons (cFOS) in NAc and VTA. Naïve male rats were treated acutely with vehicle (n = 3) or DAG (n = 3) and were 90 min later perfused. Brains were collected, and stored in 4% paraformaldehyde overnight, and in 25% sucrose until sectioning. Brains were sectioned coronally in 40-μm sections using a microtome. Brain slices of NAc (AP +1.8 mm) and VTA (AP −5.2 mm) were stained for cFOS-DAB, as described elsewhere, visualized by a Nikon light microscope (Nikon Eclipse 90i, Tokyo, Japan). Pictures were captured with a Nikon DS-Fi1 camera (Nikon, Tokyo, Japan). Cell bodies positive for cFOS immunoreactivity (dark brown) were quantified using ImageJ-FIJI (National Institutes of Health, Bethesda, MD), and counted manually by a blinded experimenter.
# The obtained data are normally distributed and with equal variance. The data from drinking experiments were analyzed by unpaired t-test or repeated two-way ANOVA. A two-tailed unpaired t-test analyzed the ELISA, ex vivo HPLC-EC, and cFOS data. […] A one-way ANOVA with Bonferroni post hoc tests and unpaired t-test analyzed the locomotor activity and CPP data, respectively. The in vivo microdialysis experiments were evaluated by a repeated two-way ANOVA followed by the Bonferroni post hoc test. […] Data were analyzed with GraphPad Prism version 10.0.2 (GraphPad Software, La Jolla, CA, USA).
# dopamine in NAc shell = test: In vivo microdialysis, dopamine release in NAc shell; design: species or system Wistar rats; settings: n = 8 per group
# Description: Male and female Rcc Han Wistar rats (8–12 weeks old at arrival; Envigo, Horst, Netherlands) were used for the alcohol drinking and locomotor activity experiments as they drink alcohol to intoxicating levels. For in vivo microdialysis studies male Wistar rats (Charles River, Calco, Italy) were used as they display robust dopamine levels in NAc shell after alcohol injection. […] All rodents were allowed to habituate to the animal facility at least one week before they entered an experiment. […] The sample sizes of each experiment were based on previous experience in which statistical significance has been detected. The person who conducted the experiments, and analyzed the collected data was aware of the treatment allocation. Only preset exclusion criteria were used when analyzing the data obtained in attempts to exclude confounding factors in analyzing data. In the alcohol drinking experiments leaking bottles and low alcohol consumption (<3.0 g/kg for males; <3.5 g/kg for females) were preset exclusion criteria. The preset exclusion criterion in the ex vivo HPLC-EC, ELISA, and recombinant cell line experiments was contamination of the sample. Misplaced probes, technical difficulties, and damages to the surgery area were preset exclusion criteria for the in vivo microdialysis experiment. Intra-cage male aggression was the preset exclusion criterion for the locomotor activity and CPP experiments. To minimize tentative confounding factors, the order of treatments was stratified, with treatments being mixed for each animal cage and for each apparatus used as well as balancing the alcohol intake between future treatment groups. […]
# The data from drinking experiments were analyzed by unpaired t-test or repeated two-way ANOVA. A two-tailed unpaired t-test analyzed the ELISA, ex vivo HPLC-EC, and cFOS data. […] A one-way ANOVA with Bonferroni post hoc tests and unpaired t-test analyzed the locomotor activity and CPP data, respectively. The in vivo microdialysis experiments were evaluated by a repeated two-way ANOVA followed by the Bonferroni post hoc test.
# [1] = system: human transporter of dopamine (DAT); test: Transporter inhibition in recombinant cell line (neurotransmitter transporter uptake assay), DAT; type: cell-based; settings: 8.3 µM DAG; CHO-K1 cells, 3 h incubation, fluorescence dye
# 5HT2A receptor = test: Aquoscreen receptor activity assay, 5HT2A; type: cell-based, human; settings: 50 µM DAG in results (8.3 µM in methods); luminescence, triplicates
# [2] = system: feeding and ghrelin-induced responses; settings: cited from earlier work
# Description: DAG can be found in the plasma after ghrelin is secreted from the gastrointestinal tract and subsequently deacetylated in the serum. […] Based on these findings and given that ghrelin has a prominent role in mediating alcohol-related responses, we hypothesize that DAG decreases such effects in rodents.
substance,measurement,setting,value
"des-acyl ghrelin (GSSFLSPEHQRVQQRKESKKPPAKLQPR; Ghrelin-28 non-acylated; UniProt Q9UBU3 24-51, looked up) [DAG, non-octanoylated form of ghrelin; purchased from Tocris (printed Tocrise Bioscience), dissolved in 0.9% NaCl]","cFOS-positive cells, VTA","cFOS in NAc and VTA; male rats, data not shown",Neither did DAG treatment influence cFOS-positive cells in the VTA
same,"number of cFOS-positive cells, NAc shell","cFOS in NAc and VTA; naïve male rats, n = 3 per group, vehicle 237 ± 13, t4 = 0.60, P = 0.6372",219 ± 33
same,"dopamine in NAc shell, DAG per se",dopamine in NAc shell; DAG 1 mg/kg without alcohol,did not affect dopamine in the NAc shell per se
same,alcohol-induced dopamine release in NAc shell (effect of DAG),"dopamine in NAc shell; male rats (methods), DAG 1 mg/kg plus alcohol vs vehicle-alcohol","suppressed this enhancement (40 min P = 0.0396, 80 min P < 0.0001, 160 min P = 0.0400, 200 min P = 0.0010, 220 min P = 0.0458)"
same,inhibition of DAT,[1],no inhibition
same,activation of 5HT2A,5HT2A receptor,no activation
same,"effects of ghrelin on feeding, gastric emptying, body temperature, glucose and lipid metabolism",[2]; ref [30–34],"blocks the effects of ghrelin on feeding, gastric emptying, body temperature, and glucose and lipid metabolism"
same,food intake,[2]; ref [32],decrease food intake
